Measured values as given in the supplement of paper PMC6580486.

Assays:
PCB490-3 = system: PCB490-3 (human epithelioid sarcoma primary culture)
Procedure: (§1)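 Roche open-access kinase inhibitor screen (223 compounds) on human epithelioid sarcoma primary cultures from three spatially distinct regions of tumor PCB490. 384-well plates, 72 h, CellTiter-Glo viability; IC50 by Hill curve fit. 100000 nM = no IC50 reached. Compound ids carry a plate-well prefix, which is stripped.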

PCB490-4 = system: PCB490-4 (human epithelioid sarcoma primary culture)
Procedure: as §1

PCB490-5 = system: PCB490-5 (human epithelioid sarcoma primary culture)
Procedure: as §1

Row | SMILES | IC50 cell viability (PCB490-3) | IC50 cell viability (PCB490-4) | IC50 cell viability (PCB490-5)
1 | COc1ccc2c(C3=C(c4cn(C)c5ccccc45)C(=O)NC3=O)cn(C)c2c1 | > 100 µM | > 100 µM | > 100 µM
2 | Nc1c(C(=O)c2cccc(-c3ccc[n+]([O-])c3)c2)cnn1-c1ccc(F)cc1F | > 100 µM | > 100 µM | > 100 µM
3 | O=C1NC(=NCc2c(Cl)cccc2Cl)S/C1=C\c1ccc2ncccc2c1 | > 100 µM | > 100 µM | > 100 µM
4 | O=c1c(Oc2ccc(F)cc2F)cc2cnc(NC3CCOCC3)nc2n1C1CC1 | > 100 µM | > 100 µM | > 100 µM
5 | O=C1NC(=NCc2ccccn2)S/C1=C\c1ccc2ncccc2c1 | > 100 µM | > 100 µM | > 100 µM
6 | Cc1[nH]nc2c1N=C(c1ccccc1Cl)c1cc([N+](=O)[O-])ccc1N2 | > 100 µM | > 100 µM | > 100 µM
7 | Nc1c(C(=O)c2ccc(-c3cccnc3)cc2)cnn1-c1ccc(F)cc1 | > 100 µM | > 100 µM | > 100 µM
8 | Cn1c(=O)c(Cc2ccccc2F)cc2cnc(NC3CCOCC3)nc21 | > 100 µM | > 100 µM | > 100 µM
9 | CCc1c(C)nc2sc3c(N)ncnc3c2c1C | > 100 µM | > 100 µM | > 100 µM
10 | C[C@@H](c1ccccc1)[C@@H](C(=O)Nc1ccc(I)cc1F)N1C(=O)N[C@H](c2ccc(OC[C@H](O)CO)cc2)C1=O | > 100 µM | > 100 µM | > 100 µM
11 | Cc1[nH]nc2c1N=C(c1ccccc1F)c1cc(C#N)ccc1N2 | > 100 µM | > 100 µM | > 100 µM
12 | Cn1cc(C2=C(c3cn(CCO)c4ccccc34)C(=O)NC2=O)c2ccccc21 | > 100 µM | > 100 µM | > 100 µM
13 | Cn1cc(C2=C(c3cn(CCCCCN)c4ccccc34)C(=O)NC2=O)c2ccccc21 | > 100 µM | > 100 µM | > 100 µM
14 | CC(CO)Nc1cc(-c2[nH]c3cccnc3c2-c2ccc(F)cc2)ccn1 (stereo not given) | > 100 µM | > 100 µM | > 100 µM
15 | O=C1NC(=O)/C(=C/c2ccc3ncccc3c2)S1 | > 100 µM | > 100 µM | > 100 µM
16 | Cn1c(=O)c(Cc2ccc(F)cc2F)cc2cnc(NC3CCOCC3)nc21 | > 100 µM | > 100 µM | > 100 µM
17 | Cn1cc(C2=C(c3cn(CCCO)c4ccccc34)C(=O)NC2=O)c2ccccc21 | > 100 µM | > 100 µM | > 100 µM
18 | CN[C@H](C#Cc1c(F)ccc2c1/C(=C/c1[nH]ccc1OC)C(=O)N2)CO | > 100 µM | > 100 µM | 1.77 µM
19 | O=[N+]([O-])c1ccc2c(c1)C(c1ccccc1Cl)=Nc1cn[nH]c1N2 | > 100 µM | > 100 µM | > 100 µM
20 | Cc1ccccc1-n1ncc(C(=O)c2ccccc2)c1N | > 100 µM | > 100 µM | > 100 µM
21 | Cn1cc(C2=C(c3ccc(N)cc3)C(=O)NC2=O)c2ccccc21 | > 100 µM | > 100 µM | > 100 µM
22 | C/C(=C1/SC(=NCc2cccs2)NC1=O)c1ccc2ncccc2c1 | > 100 µM | > 100 µM | > 100 µM
23 | O=c1c(Oc2ccc(F)cc2F)cc2cnc(NC3CCOCC3)nc2n1CCCO | > 100 µM | > 100 µM | > 100 µM
24 | O=C1NC(O)C(c2c[nH]c3ccccc23)=C1c1c[nH]c2ccccc12 (stereo not given) | > 100 µM | > 100 µM | > 100 µM
25 | C[C@@H](Cn1ncnn1)Nc1ncc2cc(Oc3ccc(F)cc3F)c(=O)n(C)c2n1 | > 100 µM | > 100 µM | > 100 µM
26 | O=C1NC(=N[C@H](CO)Cc2ccccc2)S/C1=C\c1ccc2ncccc2c1 | > 100 µM | > 100 µM | > 100 µM
27 | O=C1NC(=NCCc2ccccc2Cl)S/C1=C\c1ccc2ncccc2c1 | > 100 µM | > 100 µM | > 100 µM
28 | CC(C)(O)Cn1c(=O)c(Oc2ccc(F)cc2F)cc2cnc(NC3CCOCC3)nc21 | 2.86 µM | > 100 µM | > 100 µM
29 | COc1ccc(O)c(C(=O)c2ccc(C(=O)O[C@@H]3CCCNC[C@H]3NC(=O)c3ccncc3)cc2)c1F | > 100 µM | > 100 µM | > 100 µM
30 | Cn1c(=O)c(-c2ccccc2Cl)cc2cnc(NC3CCOCC3)nc21 | > 100 µM | > 100 µM | > 100 µM
